# Measured values from patent publication US20230331690A1, “THC DERIVATIVES, ORAL DOSAGE FORMS COMPRISING SAME, USES THEREOF FOR TREATING DISEASES AND DISORDERS AND SYNTHESIS THEREOF” (BAR-ILAN UNIVERSITY, priority 2020, published 2023).
# Where “and” joins values, the source holds several entries; their conditions need not be identical. Equal entries are not always repeated. Where two headings read alike, the source gives them in different places.
# Tests used:
# [1] = Pharmacokinetics, blood samples (Example 17); conditions: for concentration at 0.5 h: mouse, blood, ip, Component in the blood, label = analyte
# Protocol: The pharmacokinetics of 9-CD3-(8-D2)-THC compared to natural THC was evaluated using both intraperitoneal i.p. injection and an oral gavage administration for each material. The mice were divided into four groups containing 6 mice (24 mice total). For each group of mice, a blood sample was withdrawn at baseline (t=0), and half-hour intervals (t=0.5, 2 and 5 h) after administration of the drug. Three mice, half of each group, were euthanized with CO2 after 5 h and their organs (brain and liver) were collected. From the second half of each group, another blood sample was withdrawn 24 h after administration, and then these animals were euthanized and the brain and liver were collected for analysis.
# mice = experiment: Hot plate assay, withdrawal reflex latency (WRL); type: in vivo; conditions: for Hot plate Time: per animal
# [2] = Body temperature by rectal thermometer (hypothermia)
# [3] = Persistence over time, liver samples postmortem (Example 18); type: in vivo, mice; conditions: mouse, liver, oral, read-out: Average results for 3 mice (Table 13, liver); for concentration at 6 h: died at 6 h; for concentration at 24 h: died at 24 h, number in brackets = mice with a value
# Protocol: (§1) Blood samples from each mouse were collected at each time point for the pharmacokinetics tests. For 6 h after administrating of all tested drugs, and after testing their WRL on the hot plate, half the mice (n=3) of each group were sacrificed, and the liver and brain of each animal were taken for pharmacokinetics tests. From the remaining mice, blood samples were acquired at 12 h after administration for pharmacokinetics tests. At 24 h after drug administration, and after checking the WRL again, second half of each group of mice were sacrificed, and the liver and brain of each animal were taken for pharmacokinetics tests.
# (§2) All the results of the brain and liver samples, which were taken postmortem 6 h or 24 h after administration (n=3) are summarized in Tables 12-13.
# [4] = Persistence over time, brain samples postmortem (Example 18); type: in vivo, mice
# Protocol: as §1, §2
# [5] = Persistence over time, blood samples (Example 18); type: in vivo, mice
# Protocol: as §1
# [6] = Pharmacokinetics, liver samples (Example 17); type: in vivo, mice; conditions: for concentration at 24 h / concentration at 5 h: mouse, liver; for concentration at 24 h: ip; for concentration at 5 h: po
# [7] = 8 mg/Kg oral, t = 6 h, listed as THC-d5
structure (smiles),measurement,setting,value
[2H]C([2H])([2H])C1=C[C@H]2c3c(O)cc(CCCCC)cc3OC(C)(C)[C@@H]2CC1([2H])[2H] [9-CD3-(8-D2)-THC],"average blood concentration, times higher than THC",[1]; 0.5 h after i.p. administration,1.87 times
same,concentration at 0.5 h,"[1]; Average, 0.5 h after i.p. injection of THC or THC-d5, n=6 (THC-d5 n=5)",0.11 µg/mL
same,concentration at 0.5 h,"[1]; mouse 1, 0.5 h after i.p. injection of THC or THC-d5",0.183 µg/mL
same,concentration at 0.5 h,"[1]; mouse 2, 0.5 h after i.p. injection of THC or THC-d5",0.0938 µg/mL
same,concentration at 0.5 h,"[1]; mouse 4, 0.5 h after i.p. injection of THC or THC-d5",0.141 µg/mL
same,concentration at 0.5 h,"[1]; mouse 5, 0.5 h after i.p. injection of THC or THC-d5",0.0741 µg/mL
same,concentration at 0.5 h,"[1]; mouse 6, 0.5 h after i.p. injection of THC or THC-d5",0.0589 µg/mL
same,Hot plate Avg. 6 mice,"mice; 2 mg/Kg oral, t = 0.5 h",9.52 s
same,Hot plate Time,"mice; 2 mg/Kg oral, t = 0.5 h, listed as THC-d5",9.4 s and 9.3 s and 8.9 s and 10.9 s and 12.0 s and 6.6 s
same,Hot plate Avg. 6 mice,"mice; 2 mg/Kg oral, t = 3 h",10.97 s
same,Hot plate Time,"mice; 2 mg/Kg oral, t = 3 h, listed as THC-d5",7.2 s and 12.1 s and 8.5 s and 19.3 s and 13.1 s and 5.6 s
same,Hot plate Avg. 6 mice,"mice; 2 mg/Kg oral, t = 6 h",10.07 s
same,Hot plate Time,"mice; 2 mg/Kg oral, t = 6 h, listed as THC-d5",9.3 s and 14.5 s and 4.5 s and 15.8 s and 8.9 s and 7.4 s
same,Hot plate Avg. 3 mice,"mice; 2 mg/Kg oral, t = 24 h",8.3 s
same,Hot plate Time,"mice; 2 mg/Kg oral, t = 24 h, listed as THC-d5",7.9 s and 9.5 s and 7.5 s
same,increase in the WRL compared to baseline,"mice; 2 mg/kg, 0.5 h",3%
same,change in average WRL compared to baseline,"mice; 2 mg/kg, 3 h",+19%
same,change in average WRL compared to baseline,"mice; 2 mg/kg, 6 h",+9%
same,Hot plate Avg. 6 mice,"mice; 4 mg/Kg oral, t = 0.5 h",14.03 s
same,Hot plate Time,"mice; 4 mg/Kg oral, t = 0.5 h, listed as THC-d5",19.2 s and 10.3 s and 13.0 s and 9.5 s and 15.8 s and 16.4 s
same,Hot plate Avg. 6 mice,"mice; 4 mg/Kg oral, t = 3 h",13.77 s
same,Hot plate Time,"mice; 4 mg/Kg oral, t = 3 h, listed as THC-d5",17.5 s and 11.8 s and 12.1 s and 9.2 s and 12.5 s and 19.5 s
same,Hot plate Avg. 6 mice,"mice; 4 mg/Kg oral, t = 6 h",15.38 s
same,Hot plate Time,"mice; 4 mg/Kg oral, t = 6 h, listed as THC-d5",8.7 s and 19.9 s and 12.1 s and 8.3 s and 22.5 s and 20.8 s
same,Hot plate Avg. 3 mice,"mice; 4 mg/Kg oral, t = 24 h",14.27 s
same,Hot plate Time,"mice; 4 mg/Kg oral, t = 24 h, listed as THC-d5",5.2 s and 21.5 s and 16.1 s
same,increase in the WRL compared to baseline,"mice; 4 mg/kg, 0.5 h",68%
same,change in average WRL compared to baseline,"mice; 4 mg/kg, 3 h",+65%
same,change in average WRL compared to baseline,"mice; 4 mg/kg, 6 h",+85%
same,Hot plate Avg. 6 mice,"mice; 8 mg/Kg oral, t = 0.5 h",15.42 s
same,Hot plate Time,"mice; 8 mg/Kg oral, t = 0.5 h, cut-off 30 s, listed as THC-d5",19.9 s and 24.5 s and 11.1 s and 17.5 s and 10.1 s and 9.4 s
same,Hot plate Avg. 6 mice,"mice; 8 mg/Kg oral, t = 3 h",22.1 s
same,Hot plate Time,"mice; 8 mg/Kg oral, t = 3 h, cut-off 30 s, listed as THC-d5",30.0 sec. (3×) and 6.0 sec. and 26.2 sec. and 10.4 sec.
same,Hot plate Avg. 6 mice,"mice; 8 mg/Kg oral, t = 3 h, listed as THC-d5",22.10 s
same,Hot plate Avg. 6 mice,"mice; 8 mg/Kg oral, t = 6 h",8.4 s
same,Hot plate Time,mice; [7],6.4 s and 9.8 s and 11.5 s and 7.1 s and 13.4 s and 2.3 s
same,Hot plate Avg. 6 mice,mice; [7],8.42 s
same,Hot plate Avg. 3 mice,"mice; 8 mg/Kg oral, t = 24 h",20.8 s
same,animal outcome printed in the hot plate Time column,"mice; 8 mg/Kg oral, t = 24 h, animal 20",Died
same,Hot plate Time,"mice; 8 mg/Kg oral, t = 24 h, cut-off 30 s, listed as THC-d5",30.0 s and 11.2 s
same,Hot plate Avg. 3 mice,"mice; 8 mg/Kg oral, t = 24 h, listed as THC-d5",20.6 s
same,analgesic effect compared to natural THC and morphine,"mice; 8 mg/kg oral, up to 24 h after administration",stronger and longer lasting analgesic effect
same,average increase in WRL compared to baseline (t=0),"mice; 8 mg/kg, 0.5 h",67.6%
same,change in average WRL compared to t=0 at baseline,"mice; 8 mg/kg, 3 h",140%
same,time of strongest effect on body temperature after drug administration,[2]; high concentration of 8 mg/kg oral,3 h
same,hypothermia effect (body temperature),[2]; medium concentration of 4 mg/kg oral,very clear hypothermia effect
same,"Body temperature, Avg. change compared to t = 0, at t = 3 h","[2]; mice, avg. of 6 mice, 8 mg/kg (groups C+D), t = 3 h after administration",−2.6 °C
same,Animal status in the Temp. column at t = 24 h,"[2]; mice, group D, 8 mg/kg, single animal, t = 24 h",Died
same,concentration at 6 h,[3]; 2 mg/kg administered,3.31 ng/g
same,concentration at 24 h,[3]; 2 mg/kg administered,0.75 ng/g
same,concentration at 6 h,[3]; 4 mg/kg administered,16.1 ng/g
same,concentration at 6 h,[3]; 8 mg/kg administered,57.8 ng/g
same,concentration at 24 h,[3]; 8 mg/kg administered,1.64 ng/g
same,presence in the brain,"[4]; 24 h after administration, highest concentration of 8 mg/kg",evidence for the synthetic material in the brain
same,concentration at 6 h,"[4]; mouse, brain, oral, 8 mg/kg administered, died at 6 h, number in brackets = mice with a value, read-out: Average results for 3 mice - brain samples",48 ng/g
same,"Average results, blood samples","[5]; 4 mg/kg administration, Time 3 h, label = analyte",1.44 (4/4) ng/mL
same,"Average results, blood samples","[5]; 8 mg/kg administration, Time 12 h (3 mice), label = analyte",0.15 (1/1) ng/mL
same,metabolic stability compared to THC,"[5]; conclusion from mouse blood, brain and liver samples",better metabolic stability than THC
same,concentration at 0.5 h,"[5]; mouse, blood, oral, 4 mg/kg administration of THC or THC-d5, Time 0.5 h, label = analyte",0.0104 µg/mL
same,concentration at 0.5 h,"[5]; mouse, blood, oral, 8 mg/kg administration of THC or THC-d5, Time 0.5 h, label = analyte",0.0225 µg/mL
same,concentration at 3 h,"[5]; mouse, blood, oral, 8 mg/kg administration, Time 3 h, label = analyte",0.00727 µg/mL
same,concentration at 6 h,"[5]; mouse, blood, oral, 8 mg/kg administration, Time 6 h, label = analyte",0.00181 µg/mL
same,"average liver concentration, times more than THC",[6]; 5 h after oral gavage administration,1.59 times
same,"average liver concentration, times more than THC",[6]; 24 h after i.p. administration,1.40 times
same,concentration at 24 h,"[6]; 24 h after i.p. administration, n=3, read-out: average liver concentration",10.7 ng/g
same,concentration at 24 h,"[6]; 24 h after i.p. injection of THC or THC-d5, label = analyte, n=3, read-out: Component in the liver, Average",0.0106 µg/mL
same,concentration at 24 h,"[6]; 24 h after i.p. injection of THC or THC-d5, label = analyte, read-out: Component in the liver, mouse 1",0.0124 µg/mL
same,concentration at 24 h,"[6]; 24 h after i.p. injection of THC or THC-d5, label = analyte, read-out: Component in the liver, mouse 2",0.015 µg/mL
same,concentration at 24 h,"[6]; 24 h after i.p. injection of THC or THC-d5, label = analyte, read-out: Component in the liver, mouse 3",0.00464 µg/mL
same,concentration at 5 h,"[6]; 5 h after oral gavage administration of THC or THC-d5, label = analyte, n=3, read-out: Component in the liver, Average",0.00599 µg/mL
same,concentration at 5 h,"[6]; 5 h after oral gavage administration of THC or THC-d5, label = analyte, read-out: Component in the liver, mouse 1",0.00557 µg/mL
same,concentration at 5 h,"[6]; 5 h after oral gavage administration of THC or THC-d5, label = analyte, read-out: Component in the liver, mouse 2",0.00628 µg/mL
same,concentration at 5 h,"[6]; 5 h after oral gavage administration of THC or THC-d5, label = analyte, read-out: Component in the liver, mouse 3",0.00613 µg/mL
same,concentration at 5 h,"[6]; 5 h after oral gavage administration, n=3, read-out: average liver concentration",5.99 ng/g
